Legend:
Settings in all cases: labelled compound
[1] = target: T1, Cdc12ΔC-His6 (Cdc12(Δ339–407)-His6) (Saccharomyces cerevisiae, UniProt P32468); experiment: filter binding of radiolabelled GTPγS
T1 sequence (P32468 1-338): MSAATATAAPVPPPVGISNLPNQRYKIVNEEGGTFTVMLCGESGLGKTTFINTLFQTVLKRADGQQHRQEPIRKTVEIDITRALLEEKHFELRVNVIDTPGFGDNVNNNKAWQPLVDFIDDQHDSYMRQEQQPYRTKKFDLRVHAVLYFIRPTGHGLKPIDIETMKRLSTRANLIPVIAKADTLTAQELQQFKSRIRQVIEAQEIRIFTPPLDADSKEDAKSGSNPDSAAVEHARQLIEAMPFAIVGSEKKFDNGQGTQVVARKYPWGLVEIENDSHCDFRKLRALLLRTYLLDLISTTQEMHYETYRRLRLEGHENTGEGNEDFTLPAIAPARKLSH

Cdc12-His6 [2] = target: T2, Cdc12-His6 (Saccharomyces cerevisiae, UniProt P32468); experiment: filter binding of radiolabelled GTPγS
T2 sequence (P32468 1-407): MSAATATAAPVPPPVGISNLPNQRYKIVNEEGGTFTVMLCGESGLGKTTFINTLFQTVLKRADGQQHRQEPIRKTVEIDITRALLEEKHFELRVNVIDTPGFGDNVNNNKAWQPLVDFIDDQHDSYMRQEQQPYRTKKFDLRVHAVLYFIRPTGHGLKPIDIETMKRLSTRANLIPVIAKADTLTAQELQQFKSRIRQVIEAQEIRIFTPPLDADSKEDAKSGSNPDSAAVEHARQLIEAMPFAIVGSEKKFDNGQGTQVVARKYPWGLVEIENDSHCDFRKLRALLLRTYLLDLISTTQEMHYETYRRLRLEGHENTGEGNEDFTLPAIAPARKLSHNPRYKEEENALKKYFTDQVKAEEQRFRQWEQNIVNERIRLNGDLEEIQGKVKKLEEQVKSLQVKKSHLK

Cdc10 = target: T3, Cdc10 (Saccharomyces cerevisiae, UniProt P25342); experiment: GTPase, phosphate release from γ[…]GTP; type: biochemical
T3 sequence (P25342 1-322): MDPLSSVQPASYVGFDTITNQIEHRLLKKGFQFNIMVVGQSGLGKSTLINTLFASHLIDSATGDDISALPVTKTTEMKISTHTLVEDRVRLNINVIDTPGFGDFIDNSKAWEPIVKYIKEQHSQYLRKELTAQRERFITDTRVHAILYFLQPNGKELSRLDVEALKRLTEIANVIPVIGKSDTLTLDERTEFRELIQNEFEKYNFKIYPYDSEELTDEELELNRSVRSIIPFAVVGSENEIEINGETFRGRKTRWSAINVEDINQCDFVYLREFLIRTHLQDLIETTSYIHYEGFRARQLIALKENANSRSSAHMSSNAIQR

Cdc12-His6 [3] = target: T2, Cdc12-His6; experiment: GTPase, phosphate release from γ[…]GTP; type: biochemical
[4] = target: His6Cdc12–Cdc3–Cdc10–Cdc11 complex (Saccharomyces cerevisiae, UniProt P25342+P32468); experiment: binding of α[…]GTP to complex on Ni2+-NTA beads
Sequence of His6Cdc12–Cdc3–Cdc10–Cdc11 complex (P32457 2-520 partner, one chain of several): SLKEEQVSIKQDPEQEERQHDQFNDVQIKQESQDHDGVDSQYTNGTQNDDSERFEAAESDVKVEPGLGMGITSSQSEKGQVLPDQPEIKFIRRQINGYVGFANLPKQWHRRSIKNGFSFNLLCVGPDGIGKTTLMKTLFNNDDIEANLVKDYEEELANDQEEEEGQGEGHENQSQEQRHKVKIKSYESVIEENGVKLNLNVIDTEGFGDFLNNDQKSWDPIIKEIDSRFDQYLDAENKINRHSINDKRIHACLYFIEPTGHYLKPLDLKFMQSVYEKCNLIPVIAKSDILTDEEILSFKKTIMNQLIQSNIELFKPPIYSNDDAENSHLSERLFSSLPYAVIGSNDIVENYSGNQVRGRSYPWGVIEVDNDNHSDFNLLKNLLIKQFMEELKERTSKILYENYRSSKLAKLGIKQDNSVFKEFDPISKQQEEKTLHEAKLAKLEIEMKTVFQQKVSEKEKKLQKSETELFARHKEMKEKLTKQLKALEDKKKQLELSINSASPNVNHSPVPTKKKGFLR
Sequence of His6Cdc12–Cdc3–Cdc10–Cdc11 complex (P32458 2-415 partner, one chain of several): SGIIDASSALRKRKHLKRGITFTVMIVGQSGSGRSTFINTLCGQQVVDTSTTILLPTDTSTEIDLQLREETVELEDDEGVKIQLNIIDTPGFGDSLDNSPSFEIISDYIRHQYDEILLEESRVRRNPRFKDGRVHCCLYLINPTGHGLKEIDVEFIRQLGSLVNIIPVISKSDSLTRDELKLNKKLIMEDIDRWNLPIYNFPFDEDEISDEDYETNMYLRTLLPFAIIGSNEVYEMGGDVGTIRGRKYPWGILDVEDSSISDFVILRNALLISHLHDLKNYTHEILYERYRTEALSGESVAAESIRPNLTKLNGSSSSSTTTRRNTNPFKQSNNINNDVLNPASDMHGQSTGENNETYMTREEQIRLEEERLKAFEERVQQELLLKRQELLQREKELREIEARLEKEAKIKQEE

Nc1nc2c(ncn2[C@@H]2O[C@H](COP(=O)(O)OP(=O)(O)OP(O)(O)=S)[C@@H](O)[C@H]2O)c(=O)[nH]1 [GTPγS]
filter binding of radiolabelled GTPγS [1]: Both full-length Cdc12 and Cdc12ΔC formed stable complexes with GTPγS over time
filter binding of radiolabelled GTPγS (Cdc12-His6 [2]): Both full-length Cdc12 and Cdc12ΔC formed stable complexes with GTPγS over time

Nc1nc2c(ncn2[C@@H]2O[C@H](COP(=O)(O)OP(=O)(O)OP(=O)(O)O)[C@@H](O)[C@H]2O)c(=O)[nH]1 [GTP]
GTPase, phosphate release from γ[32P]GTP (Cdc10): Only Cdc10 and Cdc12 displayed detectable GTPase activity above the background control
GTPase, phosphate release from γ[32P]GTP (Cdc12-His6 [3]): Only Cdc10 and Cdc12 displayed detectable GTPase activity above the background control
binding of α[32P]GTP to complex on Ni2+-NTA beads [4]: GTP binding to the His6Cdc12–Cdc3–Cdc10–Cdc11 complex

Reference: paper PMC2172161 (The Journal of Cell Biology, 2004)
